Usually IC50 stands for the point on the concentration scale where inhibition reaches its midpoint.

Bounds are passed on as bounds.

Experiment [1] has as its system phosphorylation of Chk1 (Ser 345) in HT29 colon adenocarcinoma cells. Kind of experiment: pCHK1 cellular assay. Type of experiment: cell-based. To be noted: Homo sapiens. An excerpt: Chk1 kinase acts downstream of ATR and has a key role in DNA damage checkpoint control. Activation of Chk1 involves phosphorylation of Ser317 and Ser345 (regarded as the preferential target for phosphorylation/activation by ATR) and occurs in response to blocked DNA replication and certain forms of genotoxic stress. Phosphorylation at Ser 345 serves to localize Chk1 to the nucleus following checkpoint activation.
This assay measures a decrease in phosphorylation of Chk1 (Ser 345) in HT29 colon adenocarcinoma cells following treatment with compound and hydroxyurea (which promotes fork stalling because of dNTP depletion) and using an immunocytochemical procedure and high content imaging.
For the assay HT29 cells are plated in culture medium (DMEM high Glucose (no phenol red), 2 mM Glutamax, 1 mM Pyruvate, 10% FCS into Greiner 384 well plates, black, μclear #781090 (2500 cells/well/30 μl) and incubated for at least 20 hours at 37° C., 10% CO2 and 90% rH. Diluted test compounds (1 nM-30 μM final) and hydroxyurea (3 mM final) are added simultaneously and cells are incubated for 4 h at 37° C. After fixation/prmeabilisation with 100% MeOH (−20° C. cold) and permeabilisation with 0.2% Triton X-100 a complete immunocytochemical procedure is performed using a specific anti-pChk1 antibody (Cell Signaling, #2348BF) and fluorescently labelled secondary antibody (Alexa Fluor® 488 goat anti-rabbit F(ab′)2 fragment, Invitrogen A11070) and parallel nuclear staining for cell counting.
The nuclear localised pChk1 signal is detected on an ImageXpress Ultra confocal high content reader and reported as % positive cells (nuclei).

The test system of experiment [2] is phosphorylation of H2AX (gH2AX) in U2OS-TopBP1-ER cells. Put plainly: gH2AX-TopBP1ER cellular assay. Type of experiment: cell-based. An excerpt: gH2AX-TopBP1ER Cellular Assay
ATR activity is restricted to replicating cells and many of its targets can also be phosphorylated by other PIKKs. These restrictions have limited the development of selective cellular assays in the past. In order to overcome these limitations, a previously developed genetically engineered cellular system in which ATR, and only ATR, can be activated at will in every cell (Toledo et al Genes Dev. 22, 297-302 2008) was used. In this system, the addition of 4-hydroxytamoxifen (4-OHT), promotes the nuclear translocation of a fragment of TopBP1 which then activates ATR. The phosphorylation of H2AX that follows 4-OHT addition in these cells is a direct and selective readout of ATR activity, which is not influenced by the rest of PIKKs. This property has been used in a screen for compounds with ATR inhibitory capacity. U2OS-TopBP1-ER cells stably express the TopBP1 activation domain (aa 978-1286) fused to a mutated estrogen receptor ligand binding domain. Nuclear accumulation of the TopBP1-ER-LBD fusion protein is induced by the synthetic ER antagonist 4-hydroxytamoxifen (4-OHT) (and not by natural ER agonists) mediating specific ATR activation that is independent of DNA damage or cell cycle. In the assay phosphorylation of the ATR substrate H2AX (“gH2AX”) at Serin 139 is detected using an immune-cytochemical procedure and high content imaging. For the assay U2OS-TopBP1-ER cells are plated in culture medium (DMEM high Glucose (no phenol red), 2 mM Glutamax, 1 mM Pyruvate, 10% FCS into Greiner 384 well plates, black, μclear #781090 (4000 cells/well/30 μl) and incubated for at least 20 hours at 37° C., 10% CO2 and 90% rH. Diluted test compounds (1 nM-30 μM final) and 4-OHT (1 μM final) are added simultaneously and cells are incubated for 2 h at 37° C. After fixation with 4% formaldehyde and permeabilisation with 0.2% Triton X-100 a complete immunocytochemical procedure is performed using a specific anti-gH2AX-antibody (Millipore 05-636, clone JBW301) and fluorescently labelled secondary antibody (Alexa Fluor® 488 goat anti-mouse F(ab′)2 fragment, Invitrogen A11017) and parallel nuclear staining for cell counting. The nuclear localised gH2AX signal is detected on an ImageXpress Ultra confocal high content reader and reported as % positive cells (nuclei).

The next experiment deals with T1, ATR/ATRIP (Homo sapiens, UniProt Q13535).
T1 construct: human ATR, full length, GenBank ID: NM_001184.3; p53: Sf21 insect cells
T1 sequence (Q13535 whole entry): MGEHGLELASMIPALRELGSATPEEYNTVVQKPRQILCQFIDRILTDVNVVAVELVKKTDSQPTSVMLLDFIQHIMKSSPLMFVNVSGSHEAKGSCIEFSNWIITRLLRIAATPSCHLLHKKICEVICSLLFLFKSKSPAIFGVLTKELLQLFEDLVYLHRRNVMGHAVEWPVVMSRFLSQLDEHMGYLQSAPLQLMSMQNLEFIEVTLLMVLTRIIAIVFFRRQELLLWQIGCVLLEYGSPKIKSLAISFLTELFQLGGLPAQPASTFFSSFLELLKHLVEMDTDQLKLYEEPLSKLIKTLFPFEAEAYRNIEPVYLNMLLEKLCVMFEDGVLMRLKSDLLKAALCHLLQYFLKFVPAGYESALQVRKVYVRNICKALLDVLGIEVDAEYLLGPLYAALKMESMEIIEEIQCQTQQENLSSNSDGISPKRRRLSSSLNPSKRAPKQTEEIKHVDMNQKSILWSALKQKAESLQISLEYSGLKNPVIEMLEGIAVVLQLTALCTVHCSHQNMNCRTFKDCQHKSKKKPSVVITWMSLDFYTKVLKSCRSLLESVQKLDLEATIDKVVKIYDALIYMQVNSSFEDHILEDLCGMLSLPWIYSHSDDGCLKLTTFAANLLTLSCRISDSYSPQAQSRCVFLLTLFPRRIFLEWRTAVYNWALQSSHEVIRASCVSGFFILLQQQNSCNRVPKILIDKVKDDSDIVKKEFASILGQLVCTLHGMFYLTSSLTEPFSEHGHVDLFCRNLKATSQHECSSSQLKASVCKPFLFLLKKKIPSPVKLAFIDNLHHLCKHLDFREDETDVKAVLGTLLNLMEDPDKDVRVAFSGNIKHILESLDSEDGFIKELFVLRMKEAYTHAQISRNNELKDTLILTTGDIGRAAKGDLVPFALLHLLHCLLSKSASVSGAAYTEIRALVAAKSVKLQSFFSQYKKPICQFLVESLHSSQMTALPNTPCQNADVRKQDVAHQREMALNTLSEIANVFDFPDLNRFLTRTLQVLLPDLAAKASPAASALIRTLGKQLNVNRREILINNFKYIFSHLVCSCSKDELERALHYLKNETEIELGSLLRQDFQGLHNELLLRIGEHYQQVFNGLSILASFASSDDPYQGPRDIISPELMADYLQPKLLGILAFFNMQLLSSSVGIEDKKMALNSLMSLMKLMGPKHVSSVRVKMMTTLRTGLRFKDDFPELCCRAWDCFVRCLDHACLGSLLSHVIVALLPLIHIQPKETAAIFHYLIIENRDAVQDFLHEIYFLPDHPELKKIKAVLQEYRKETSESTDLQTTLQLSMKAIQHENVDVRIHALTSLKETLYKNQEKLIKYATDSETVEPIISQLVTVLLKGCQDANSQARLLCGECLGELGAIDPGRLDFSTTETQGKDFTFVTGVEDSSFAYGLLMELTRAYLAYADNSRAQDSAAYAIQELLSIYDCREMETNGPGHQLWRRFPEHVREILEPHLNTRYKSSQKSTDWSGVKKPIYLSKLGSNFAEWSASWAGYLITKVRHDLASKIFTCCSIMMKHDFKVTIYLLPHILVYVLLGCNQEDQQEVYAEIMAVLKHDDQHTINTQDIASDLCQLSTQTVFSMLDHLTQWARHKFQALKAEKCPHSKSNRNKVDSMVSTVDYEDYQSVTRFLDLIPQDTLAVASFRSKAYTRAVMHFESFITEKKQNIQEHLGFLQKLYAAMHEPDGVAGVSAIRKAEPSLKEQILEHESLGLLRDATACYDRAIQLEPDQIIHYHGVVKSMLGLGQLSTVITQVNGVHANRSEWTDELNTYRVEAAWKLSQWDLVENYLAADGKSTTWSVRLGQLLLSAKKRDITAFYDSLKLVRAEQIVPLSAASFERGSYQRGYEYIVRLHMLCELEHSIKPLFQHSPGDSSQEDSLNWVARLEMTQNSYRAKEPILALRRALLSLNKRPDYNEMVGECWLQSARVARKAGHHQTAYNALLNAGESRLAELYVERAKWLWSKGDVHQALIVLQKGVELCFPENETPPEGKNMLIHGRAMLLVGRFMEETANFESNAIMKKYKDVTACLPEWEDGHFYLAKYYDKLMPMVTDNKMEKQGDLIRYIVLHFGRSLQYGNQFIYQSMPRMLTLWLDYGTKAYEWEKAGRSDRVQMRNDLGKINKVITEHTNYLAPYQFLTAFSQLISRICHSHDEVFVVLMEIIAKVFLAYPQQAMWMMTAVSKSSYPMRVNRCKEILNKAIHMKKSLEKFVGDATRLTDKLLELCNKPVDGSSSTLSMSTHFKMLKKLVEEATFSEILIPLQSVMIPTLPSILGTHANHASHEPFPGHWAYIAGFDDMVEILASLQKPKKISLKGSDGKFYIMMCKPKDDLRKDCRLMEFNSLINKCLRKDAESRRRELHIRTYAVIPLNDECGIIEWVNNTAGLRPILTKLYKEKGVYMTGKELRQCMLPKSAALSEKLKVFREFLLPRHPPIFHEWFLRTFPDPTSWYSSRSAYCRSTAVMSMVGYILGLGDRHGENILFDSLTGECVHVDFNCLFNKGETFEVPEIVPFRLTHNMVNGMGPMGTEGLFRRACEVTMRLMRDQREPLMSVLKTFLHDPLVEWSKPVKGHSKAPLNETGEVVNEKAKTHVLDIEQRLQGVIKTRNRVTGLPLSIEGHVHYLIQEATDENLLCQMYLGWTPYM
T1 sequence (Q8WXE1 whole entry partner): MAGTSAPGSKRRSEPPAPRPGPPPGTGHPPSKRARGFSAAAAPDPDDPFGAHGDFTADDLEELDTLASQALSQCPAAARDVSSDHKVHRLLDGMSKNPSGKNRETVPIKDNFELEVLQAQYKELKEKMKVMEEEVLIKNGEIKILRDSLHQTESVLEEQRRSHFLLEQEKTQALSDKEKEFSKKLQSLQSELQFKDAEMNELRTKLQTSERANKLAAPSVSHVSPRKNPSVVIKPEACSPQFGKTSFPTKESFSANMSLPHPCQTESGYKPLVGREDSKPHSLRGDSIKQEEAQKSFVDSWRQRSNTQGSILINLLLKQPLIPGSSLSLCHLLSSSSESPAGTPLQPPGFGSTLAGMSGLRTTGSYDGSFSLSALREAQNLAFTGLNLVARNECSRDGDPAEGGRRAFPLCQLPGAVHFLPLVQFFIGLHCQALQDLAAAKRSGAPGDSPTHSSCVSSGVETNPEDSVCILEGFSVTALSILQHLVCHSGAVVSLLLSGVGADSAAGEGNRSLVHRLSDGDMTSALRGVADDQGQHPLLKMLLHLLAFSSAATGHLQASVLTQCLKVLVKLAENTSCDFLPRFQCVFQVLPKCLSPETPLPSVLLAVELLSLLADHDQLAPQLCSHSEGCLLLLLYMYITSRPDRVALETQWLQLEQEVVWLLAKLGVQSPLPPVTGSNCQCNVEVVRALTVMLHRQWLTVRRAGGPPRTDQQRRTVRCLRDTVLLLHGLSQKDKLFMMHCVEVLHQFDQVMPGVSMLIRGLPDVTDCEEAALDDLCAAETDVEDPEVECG
Put plainly: ATR/ATRIP kinase assay (TR-FRET, p53 phosphorylation). It is filed as biochemical. The conditions noted are these: Table 1, class symbols; read-out: ATR-ATRIP IC50. A general note: Time-resolved FRET reads energy transfer from a long-lived donor to a nearby acceptor.

[3] abbreviates: HT-29, Table 1, class symbols, hydroxyurea.

For the molecule `C[C@@H]1COC[C@H]2COc3c(nc(-c4ccnc5[nH]ccc45)nc3C(C)(C)O)N21` [A6, 2-[(5R,8aS)-5-Methyl-3-(1H-pyrrolo[2,3-b]pyridin-4-yl)-5,6,8a,9-tetrahydro-8H-7,10-dioxa-2,4,4b-triaza-phenanthren-1-yl]-propan-2-ol], the IC50 in experiment [1] (setting [3]) is 10 to 100 nM; in experiment [2] (Table 1, class symbols, 4-OHT), 10 to 100 nM; at ATR/ATRIP, under 1 nM.

For the molecule `C[C@@H]1COC[C@H]2COc3c(nc(-c4c(F)cnc5[nH]ccc45)nc3C(C)(C)O)N21` [A7, 2-[(5R,8aS)-3-(5-Fluoro-1H-pyrrolo[2,3-b]pyridin-4-yl)-5-methyl-5,6,8a,9-tetrahydro-8H-7,10-dioxa-2,4,4b-triaza-phenanthren-1-yl]-propan-2-ol], the 50% inhibitory concentration (IC50) lay within 100 to 1000 nM in experiment [1] (setting [3]); 100 to 1000 nM in experiment [2] (Table 1, class symbols, 4-OHT); 1 to 10 nM at ATR/ATRIP.

For the molecule `CNc1nc2ccccc2n1-c1nc2c(c(C(C)(C)O)n1)OC[C@@H]1COC[C@@H](C)N21` [A9, 2-[(5R,8aS)-5-Methyl-3-(2-methylamino-benzimidazol-1-yl)-5,6,8a,9-tetrahydro-8H-7,10-dioxa-2,4,4b-triaza-phenanthren-1-yl]-propan-2-ol], the IC50 in experiment [1] (setting [3]) was 10 to 100 nM; in experiment [2] (Table 1, class symbols, 4-OHT), 100 to 1000 nM; at ATR/ATRIP, under 1 nM.

For the molecule `CNc1nccn1-c1nc2c(c(C(C)(C)S(C)(=O)=O)n1)OC[C@@H]1COC[C@@H](C)N21` [A10, {1-[(5R,8aS)-1-(1-Methanesulfonyl-1-methyl-ethyl)-5-methyl-5,6,8a,9-tetrahydro-8H-7,10-dioxa-2,4,4b-triaza-phenanthren-3-yl]-1H-imidazol-2-yl}-methyl-amine], the IC50 in experiment [1] (setting [3]) is 10 to 100 nM; in experiment [2] (Table 1, class symbols, 4-OHT), 100 to 1000 nM; on ATR/ATRIP, 10 to 100 nM.

As to `C[C@@H]1COC[C@H]2COc3c(nc(-n4c(N)nc5ccccc54)nc3C(C)(C)S(C)(=O)=O)N21` [A11, 1-[(5R,8aS)-1-(1-Methanesulfonyl-1-methyl-ethyl)-5-methyl-5,6,8a,9-tetrahydro-8H-7,10-dioxa-2,4,4b-triaza-phenanthren-3-yl]-1H-benzimidazol-2-ylamine], the IC50 is 10 to 100 nM in experiment [1] (setting [3]); 100 to 1000 nM in experiment [2] (Table 1, class symbols, 4-OHT); under 1 nM at ATR/ATRIP.

For the molecule `CNc1nc2ccccc2n1-c1nc2c(c(C(C)(C)S(C)(=O)=O)n1)OC[C@@H]1COC[C@@H](C)N21` [A15, {1-[(5R,8aS)-1-(1-Methanesulfonyl-1-methyl-ethyl)-5-methyl-5,6,8a,9-tetrahydro-8H-7,10-dioxa-2,4,4b-triaza-phenanthren-3-yl]-1H-benzimidazol-2-yl}-methyl-amine], the IC50 was under 10 nM in experiment [1] (setting [3]); 2.9 nM in experiment [1] (HT-29, Table 2, hydroxyurea); under 10 nM in experiment [2] (Table 1, class symbols, 4-OHT); 7.4 nM in experiment [2] (Table 2, 4-OHT); under 1 nM at ATR/ATRIP.

In the case of `C[C@@H]1COC[C@H]2COc3c(nc(-c4c(N)cnc5[nH]ccc45)nc3C(C)(C)O)N21` [A21, 2-[(5R,8aS)-3-(5-Amino-1H-pyrrolo[2,3-b]pyridin-4-yl)-5-methyl-5,6,8a,9-tetrahydro-8H-7,10-dioxa-2,4,4b-triaza-phenanthren-1-yl]-propan-2-ol], the IC50 in experiment [1] (setting [3]) is 100 to 1000 nM; in experiment [2] (Table 1, class symbols, 4-OHT), 10 to 100 nM; on ATR/ATRIP it was under 1 nM.

As to `CNc1cnc2[nH]ccc2c1-c1nc2c(c(C(C)(C)O)n1)OC[C@@H]1COC[C@@H](C)N21` [A23, 2-[(5R,8aS)-5-Methyl-3-(5-methylamino-1H-pyrrolo[2,3-b]pyridin-4-yl)-5,6,8a,9-tetrahydro-8H-7,10-dioxa-2,4,4b-triaza-phenanthren-1-yl]-propan-2-ol], the IC50 in experiment [1] (setting [3]) is 10 to 100 nM; in experiment [2] (Table 1, class symbols, 4-OHT), 100 to 1000 nM; on ATR/ATRIP, 1 to 10 nM.

As for `Cc1nc2ccccc2n1-c1nc2c(c(C(C)(C)S(C)(=O)=O)n1)OC[C@@H]1COC[C@@H](C)N21` [A24, (5R,8aS)-1-(1-Methanesulfonyl-1-methyl-ethyl)-5-methyl-3-(2-methylbenzimidazol-1-yl)-5,6,8a,9-tetrahydro-8H-7,10-dioxa-2,4,4b-triaza-phenanthrene], the IC50 was 10 to 100 nM in experiment [1] (setting [3]); 100 to 1000 nM in experiment [2] (Table 1, class symbols, 4-OHT); under 1 nM on ATR/ATRIP.

`CNc1nc2c(F)cccc2n1-c1nc2c(c(C(C)(C)S(C)(=O)=O)n1)OC[C@@H]1COC[C@@H](C)N21` [A25, {4-Fluoro-1-[(5R,8aS)-1-(1-methanesulfonyl-1-methyl-ethyl)-5-methyl-5,6,8a,9-tetrahydro-8H-7,10-dioxa-2,4,4b-triaza-phenanthren-3-yl]-1H-benzimidazol-2-yl}-methyl-amine]: the IC50 was 10 to 100 nM in experiment [1] (setting [3]); 100 to 1000 nM in experiment [2] (Table 1, class symbols, 4-OHT); under 1 nM on ATR/ATRIP.

In the case of `CNc1nc2ccccc2n1-c1nc2c(c(C3(S(C)(=O)=O)CC3)n1)OC[C@@H]1COC[C@@H](C)N21` [A26, {1-[(4bR,8S)-1-(1-Methanesulfonyl-cyclopropyl)-5-methyl-5,6,8a,9-tetrahydro-8H-7,10-dioxa-2,4,4b-triaza-phenanthren-3-yl]-1H-benzimidazol-2-yl}-methylamine], the IC50 is 10 to 100 nM in experiment [1] (setting [3]); 25 nM in experiment [1] (HT-29, Table 2, hydroxyurea); 10 to 100 nM in experiment [2] (Table 1, class symbols, 4-OHT); 37 nM in experiment [2] (Table 2, 4-OHT); under 1 nM at ATR/ATRIP.
